Patent publication US11396522B2, “Bis-acetal-based substrates for imaging exo-glycosidase activity” (ALECTOS THERAPEUTICS INC., priority 2017, dated 2022)
“Also recorded” adds a separate entry of the source. Values belong to the molecule of their own block, whether it stands above or below them.

Assays:
[1] = biological target: T1, hOGA (Homo sapiens, UniProt O60502); experiment: Interrupted assay for determination of hemiacetal breakdown; type: biochemical
T1 construct: started by addition of hOGA (WT, Full-length, expressed in E. coli. as previously described); made in house; host or cells: E. coli
T1 sequence (O60502 1-916): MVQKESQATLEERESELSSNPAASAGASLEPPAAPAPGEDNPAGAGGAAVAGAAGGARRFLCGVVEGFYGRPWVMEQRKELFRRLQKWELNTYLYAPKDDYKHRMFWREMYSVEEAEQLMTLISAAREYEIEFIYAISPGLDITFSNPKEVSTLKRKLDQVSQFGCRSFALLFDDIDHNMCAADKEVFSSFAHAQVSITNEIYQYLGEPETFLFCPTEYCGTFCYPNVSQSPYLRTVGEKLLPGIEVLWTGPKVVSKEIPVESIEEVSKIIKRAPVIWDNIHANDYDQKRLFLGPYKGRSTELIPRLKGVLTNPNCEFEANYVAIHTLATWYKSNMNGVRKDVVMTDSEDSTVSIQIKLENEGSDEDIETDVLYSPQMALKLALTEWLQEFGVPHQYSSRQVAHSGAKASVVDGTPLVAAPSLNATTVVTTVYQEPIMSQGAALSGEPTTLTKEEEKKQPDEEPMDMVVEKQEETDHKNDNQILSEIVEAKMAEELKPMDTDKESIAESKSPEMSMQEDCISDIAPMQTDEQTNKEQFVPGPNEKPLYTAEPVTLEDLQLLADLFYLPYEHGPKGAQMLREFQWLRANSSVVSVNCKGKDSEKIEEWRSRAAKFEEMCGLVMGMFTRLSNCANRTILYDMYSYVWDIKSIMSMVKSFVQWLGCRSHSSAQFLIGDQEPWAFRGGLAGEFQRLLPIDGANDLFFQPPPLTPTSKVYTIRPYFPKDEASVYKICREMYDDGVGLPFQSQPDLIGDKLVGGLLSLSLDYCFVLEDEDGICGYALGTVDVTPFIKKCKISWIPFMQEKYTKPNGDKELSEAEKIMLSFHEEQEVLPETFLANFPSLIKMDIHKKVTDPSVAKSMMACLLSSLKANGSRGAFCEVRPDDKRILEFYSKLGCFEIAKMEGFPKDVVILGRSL
Description: For some experiments, fluorescence kinetic assays were performed using a Varian Cary Eclipse Spectrophotometer set for 335/493 nm excitation/emission wavelengths. Slits were set at 10 nm and the detector was set on Medium voltage. Enzymatic reactions with human OGA were carried out in PBS at 37° C. and were started by addition of hOGA (WT, Full-length, expressed in E. coli. as previously described) in a total volume of 160 μL (Starna sub-micro Fluorometer cuvette). For measurements of rates using different concentrations of substrates, a hOGA concentration of 100 nM was used. For hOGA titration, 25 μM of Glyco-BABS were added to various concentration of hOGA. For interrupted assay, reaction was started by addition of hOGA (680 nM final) in solutions of GlcNAc-BABS in PBS. […] For hemiacetal breakdown rate measurements, data after Thiamet-G addition was extracted and fitted using Prism software. EDANS standard curve was established using endpoint fluorescence measurements of serial dilutions of EDANS in the relevant buffer using the same instrument parameters. Inner-Filter effect measurements were carried out in cuvette by measuring fluorescence of several concentrations of EDANS in presence of various concentrations of GlcNAc-BABS. Kinetics with Glc-BABS and GBA enzymes (GBA1 and GBA3 purchased from R&D Systems), kinetics with GALC (R&D systems) and Gal-BABS, pH stability, quenching efficiency, some inner-filter effect experiments and lysates experiments were carried out using a Molecular Devices SpectraMax i3× plate reader. Emission/Excitation wavelengths were set at 350 and 490 nm respectively for EDANS/DABCYL Glyco-BABS and at 565 and 610 nm respectively for TAMRA/BHQ2 Glyco-BABS. Fluorescence measurements were performed using Costar 96-well black plates or Nunc 384-well black plates after sample preparation in 96-well mixing plates. For GBA1, the continuous assay was performed in citrate buffer (50 mM, pH 5.5) in the presence of 0.1% Triton, 1 mg/mL BSA and 0.14% taurodeoxycholate at 25° C. […]

[2] = pH stability of Glyco-BABS; type: physicochemical; settings: 5 μM, up to 72 h, pH 2 to 10
Source text: One concern with the Glyco-BABS design was the known lability of acetals under acidic conditions that has been exploited in pH-sensitive prodrugs or linkers for drug delivery.^41,42 However, we recognized that carbohydrate anomeric acetals are chemically distinct from regular acetals. Due to stabilization by the endocyclic oxygen, we expected these bis-acetals would show stability across a range of physiological pH values. We therefore assessed the stability of the bis-acetal motif toward acid and base hydrolysis (FIG. 8). To do so, we tested the pH stability of 5 μM of GlcNAc-Br-BABS 1, GlcNAc-OH-BABS 2, Glc-OH-BABS 6 and Glc-H-BABS 7 at different pH over time. We prepared solutions at various pH by mixing 0.2 M KCl+0.1 M HCl with 0.2 M KCl+0.1 M KOH. Fluorescence of EDANS and Glyco-BABS solutions (5 μM, 45 μL) at different pH was measured at different time points in Nunc 384-well plates using a SpectraMax i3× plate reader. Data (triplicates) support the highly efficient quenching and the stability of these substrates over a wide range of pH.

[3] = biological target: T2, GBA1 (Homo sapiens, UniProt P04062); experiment: Live cell imaging of GBA1 activity in SK-N-SH cells; type: cell-based
T2 sequence (P04062 40-536): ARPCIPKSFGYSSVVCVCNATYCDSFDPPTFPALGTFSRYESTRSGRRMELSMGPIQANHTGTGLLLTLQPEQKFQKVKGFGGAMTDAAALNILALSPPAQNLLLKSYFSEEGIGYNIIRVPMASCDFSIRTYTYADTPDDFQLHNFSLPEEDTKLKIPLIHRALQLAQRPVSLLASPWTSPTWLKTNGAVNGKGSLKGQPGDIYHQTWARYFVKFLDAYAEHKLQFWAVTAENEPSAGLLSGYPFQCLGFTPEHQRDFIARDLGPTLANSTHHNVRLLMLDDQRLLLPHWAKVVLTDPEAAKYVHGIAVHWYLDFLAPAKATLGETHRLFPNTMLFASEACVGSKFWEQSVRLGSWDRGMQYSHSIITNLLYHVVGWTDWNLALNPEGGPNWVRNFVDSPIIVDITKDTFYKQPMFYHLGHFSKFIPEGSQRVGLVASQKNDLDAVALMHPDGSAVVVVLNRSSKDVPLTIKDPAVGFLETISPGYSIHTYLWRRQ
Description: SK-N-SH cells were cultured, except where indicated otherwise, in EMEM supplemented with 10% FBS and 1% penicillin-streptomycin at 37° C. and 5% CO2. The media was replaced every 3-4 days and the cells passaged after reaching 70-80% confluency, which occurred approximately every week. For imaging experiments, cells were seeded in triplicate into the central 60 wells of a sterile 96-well plate (Corning 4680) at a density of 10000 cells/well.
Fluorescence measurements in live cells was performed using a Molecular Devices ImageXpress XLS High-Content Imaging system (HCl). Live cells were plated in a 96-well or 384-well Corning plates. Cells were left to adhere and incubated at 37° C. in 5% CO2 for at least 12 h in EMEM supplemented with 10% FBS and 1% penicillin-streptomycin before any treatment. Cells were then washed with warm (37° C.) EMEM (with no phenol red and FBS). A mixture of vehicle, substrate dissolved in DMSO (0.1% final concentration of DMSO), or substrate and inhibitor mixture, were added to the imaging media (EMEM with no phenol red or FBS supplemented with DAPI) which was then added to these cells and incubated at 37° C. and 5% CO2 in the dark for the times specified (typically 2 h). […] For each well, 9 sites were imaged at predefined regions of each well and 2 to 3 channel were recorded (DAPI, FITC, TRITC). The data was analyzed using the MetaXpress software suite. by determining the Mean Integrated Intensity obtained using the TRITC channel and dividing by the number of cells (determined thanks to DAPI staining).
The Glc-H-BABS(TAMRA/BHQ2) 8 was also evaluated in the human neuronal cell culture model cells SK-N-SH. […] By integrating the fluorescence intensity from randomly selected fields, it was possible to observe a quantitative increase in fluorescence with increasing concentrations of the Glc-BABS 8. Next, it was established that there is a dose-dependent cellular fluorescence where a linear increase in fluorescence was observed that depended on the concentration of Glc-BABS 8 (FIG. 12). […]

- first order rate constant (k3) for hemiacetal breakdown ([1]; hemiacetal generated from the substrate, hOGA stopped after 1 min with Thiamet-G 100 μM): 0.044 s⁻¹
- hemiacetal breakdown, times faster than the one from GlcNAc-Br-BABS 1 ([1]; ratio of k3): 4.5 times
- pH stability (increase of fluorescence) [2]: no significant increase of fluorescence
SMILES: CC(=O)N[C@H]1[C@H](O[C@@H](OCCOCCn2cc(CNC(=O)c3ccc(/N=N/c4ccc(N(C)C)cc4)cc3)nn2)[C@@](C)(O)C(=O)NCCNc2cccc3c(S(=O)(=O)O)cccc23)O[C@H](CO)[C@@H](O)[C@@H]1O [Compound 2, 5-((2-((2R,3R)-3-(((2S,3R,4R,5S,6R)-3-acetamido-4,5-dihydroxy-6-(hydroxymethyl)tetrahydro-2H-pyran-2-yl)oxy)-3-(2-(2-(4-((4-((E)-(4-(dimethylamino)phenyl)diazenyl)benzamido)methyl)-1H-1,2,3-triazol-1-yl)ethoxy)ethoxy)-2-hydroxy-2-methylpropanamido)ethyl)amino)naphthalene-1-sulfonic Acid]

SMILES: COc1cc(/N=N/c2ccc([N+](=O)[O-])cc2)c(OC)cc1/N=N/c1ccc(N(C)CCCC(=O)NCc2cn(CCOCCOC(CC(=O)NCCCCCCNC(=O)c3ccc(-c4c5ccc(=[N+](C)C)cc-5oc5cc(N(C)C)ccc45)c(C(=O)[O-])c3)O[C@@H]3O[C@H](CO)[C@@H](O)[C@H](O)[C@H]3O)nn2)cc1 (stereo partly drawn) [Compound 8, 5-((6-(3-(2-(2-(4-((4-((4-((E)-(2,5-dimethoxy-4-((E)-(4-nitrophenyl)diazenyl)phenyl)diazenyl)phenyl)(methyl)amino)butanamido)methyl)-1H-1,2,3-triazol-1-yl)ethoxy)ethoxy)-3-(((2S,3R,4S,5S,6R)-3,4,5-trihydroxy-6-(hydroxymethyl)tetrahydro-2H-pyran-2-yl)oxy)propanamido)hexyl)carbamoyl)-2-(6-(dimethylamino)-3-(dimethyliminio)-3H-xanthen-9-yl)benzoate]
- processing to fluorescent product in live SK-N-SH cells ([3]; 5 μM and varying concentrations, 1 to 2 h): processed in cells to result in the fluorescent product

SMILES: O[C@H]1[C@H](O)CNC[C@@H]1C(F)F [AT3375, (3R,4R,5S)-5-(difluoromethyl)piperidine-3,4-diol]
- effect on fluorescent signal of Glc-BABS 8 in live SK-N-SH cells ([3]; 10 μM AT3375 with 5 μM Glc-BABS 8): significant reduction; also recorded: clear decrease of the signal
- fluorescence signal vs inhibitor concentration in live SK-N-SH cells ([3]; varying AT3375 concentrations, 5 μM Glc-BABS 8, 2 h): decreasing fluorescence signal with increasing inhibitor concentration
